Experimental data published in patent US20180071354A1, “SELECTIVE BREEDING METHOD OF ANTITUMOR/ANTICANCER CAMELLIA SINENSIS STRAIN, AND TEA PRODUCT OF SUCH STRAIN” (FUJIAN AGRICULTURE AND FORESTRY UNIVERSITY, priority 2015, published 2018).

Tested on: human leukemia cell line K562
Experiment: In vitro antitumor/anticancer testing (CCK-8), K562
Assay type: cell-based
Conditions: 48 h, read-out: Percent growth inhibition
Protocol: Each of Tea Product 1 and Conventional Tea Product obtained in section A of this example was used to prepare test tea samples according to the method described below. A proper amount of the respective tea product was added into sterile water to prepare a stock solution with a concentration of 100 mg/mL, followed by using a membrane filter with a pore size of 0.22 μm to conduct vacuum filtration and sterilization. The resulting stock solution was diluted with a respective complete medium shown in Table 3 below to form test tea samples with different concentrations. In other words, the thus obtained test tea samples to be used for treating a respective cancer/tumor cell line shown in Table 3 were prepared using the same complete medium as that for the respective cancer/tumor cell line.
Specifically, each of the aforesaid commercially available agents was subjected to the method described below to prepare comparative test samples. A proper amount of a respective commercially available agent was dissolved in phosphate-buffered saline (PBS) to prepare a stock solution with a concentration of 5 mg/mL, followed by using a membrane filter with a pore size of 0.22 μm to conduct vacuum filtration and sterilization. The resulting stock solution was diluted with a respective complete medium shown in Table 3 below to form comparative test samples with different concentrations. To be specific, the comparative test samples prepared from the respective commercially available agent have the concentrations shown in Table 2 below. The thus obtained comparative test samples to be used for treating a respective cancer/tumor cell line shown in Table 3 were prepared using the same complete medium as that for the respective cancer/tumor cell line.
The cultivation of each cancer/tumor cell line is described as follows. […] Afterwards, a cell suspension having a cell density of 1.0×10^4 cells/mL was prepared.
As experimental groups, the tumor/cancer cells of each cell line were treated with the test tea samples prepared from one or more of the tea products and the comparative test samples prepared from one or more of the commercially available agents as obtained in section B of this example (for more detailed information about the tea product(s) and the commercially available product (s) used to treat each cell line, please see Table 4 below). To be specific, 6 to 10 test tea samples prepared from the same tea product and having different concentrations, as well as 6 to 10 comparative test samples prepared from the same commercially available agent and having different concentrations, were utilized to treat the tumor/cancer cells of each cell line. For each experimental group, 6 repetitions of tumor/cancer treatment were performed. For the control group, 100 μL of PBS was added to a well containing the medium and the cancer/tumor cells of the respective cell line. For the blank group, 100 μL of PBS was added to a well containing a complete medium the same as that used for cultivation of the cancer/tumor cells of the respective cell line.
After the treatment described above, cultivation was conducted in an incubator (37° C., 100% relative humidity, 5% CO2) for 48 hours. Subsequently, the liquid containing the medium and the sample in the well was removed, and a respective complete medium (shown in Table 3 above) containing 10% CCK-8 (Cell Counting Kit-8)(Dojindo Molecular Technologies, Inc., Cat. No. CK04-13) was added. Cultivation was performed in an incubator (37° C.) for 2 to 4 hours, followed by gently shaking.

What does the source list for `Cc1ccc(NC(=O)c2ccc(CN3CCN(C)CC3)cc2)cc1Nc1nccc(-c2cccnc2)n1` [Glivec]?
inhibition at 0.0184 µg/mL (0.0184 μg/mL): 17.7%; inhibition at 0.0369 µg/mL (0.0369 μg/mL): 35.7%; inhibition at 0.0737 µg/mL (0.0737 μg/mL): 55.3%; inhibition at 0.1474 µg/mL (0.1474 μg/mL): 66.2%; inhibition at 0.2949 µg/mL (0.2949 μg/mL): 81.5%; inhibition at 0.5897 µg/mL (0.5897 μg/mL): 88.9%
